Reference: patent US12649790B2, “Proteins that bind SP17 including fully-human anti-SP17 antibodies” (Medicovestor, Inc., priority 2023, dated 2026)
Entries after “also recorded” stand apart in the source; their conditions may differ. *1 amine or outer side, *2 acyl side, *3 side chain or, on linkers, in order; H or OH if unused. Where a SMILES comes first, the peptide text is derived from it. [ ]: non-standard residue; d: D form. The star is where a group is joined. Exatecan = CC[C@@]1(O)C(=O)OCc2c1cc1n(c2=O)Cc2c-1nc1cc(F)c(C)c3c1c2[C@@H](N*)CC3; Hexanoyl(6-maleimido) = O=C1C=CC(=O)N1CCCCCC(=O)*; NHCH2OCH2CO = O=C(COCN[*:1])[*:2]

T1: recombinant 6His-Sp17 protein (Homo sapiens, UniProt Q15506)
T1 sequence (Q15506 1-151): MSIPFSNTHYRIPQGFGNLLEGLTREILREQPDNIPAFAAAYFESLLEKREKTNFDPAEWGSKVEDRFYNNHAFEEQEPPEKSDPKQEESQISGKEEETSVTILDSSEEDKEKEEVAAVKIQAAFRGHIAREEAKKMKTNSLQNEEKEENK

T2: mouse surface Sp17 protein expressed on the mouse ovarian cancer cell line ID8 (Mus musculus, UniProt Q62252)
T2 construct: endogenous in cells; host or cells: ID8 mouse ovarian cancer cell line
T2 sequence (Q62252 1-149): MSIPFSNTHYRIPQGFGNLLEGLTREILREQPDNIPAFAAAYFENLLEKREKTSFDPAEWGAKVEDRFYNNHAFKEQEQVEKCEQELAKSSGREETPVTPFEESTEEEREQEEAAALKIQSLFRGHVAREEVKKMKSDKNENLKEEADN

T3: Sp17 protein (Homo sapiens, UniProt Q15506)
T3 sequence (Q15506 1-151): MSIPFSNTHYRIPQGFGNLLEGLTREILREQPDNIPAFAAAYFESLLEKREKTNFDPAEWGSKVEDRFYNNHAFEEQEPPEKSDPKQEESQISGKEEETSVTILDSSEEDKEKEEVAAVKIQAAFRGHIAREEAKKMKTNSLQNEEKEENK


Columns and labels:
SK-OV-3 cells = assay: Cytotoxicity assay (luminescence) against SK-OV-3 cells; details: 5 or 6 days
Description: SK-OV-3 cells were seeded at 1000, 2000, or 3000 cells per well and incubated overnight in advance of a cytotoxicity assay. […] The SK-OV-3 cells were treated with various concentrations of the SP17-AB2 antibody, the SP17-AB2-DXD immunoconjugate, a control human IgG4 antibody (hIgG4), or deruxtecan alone (DXD). The cells were incubated for 5 or 6 additional days, and cytotoxicity was then measured using a luminescence assay and EnVision™ plate reader (PerkinElmer, Massachusetts, United States).

ID8 cells = assay: Cytotoxicity assay against ID8 cells; format: cell-based, mouse; details: 3 days
Description: […] The cells were then treated with various concentrations of either the SP17-AB2 antibody, the SP17-AB2-DXD immunoconjugate, hIgG4, or deruxtecan alone. The cells were incubated for 3 additional days, and then cytotoxicity was measured.

[1] = target: T1, recombinant 6His-Sp17 protein; assay: Surface plasmon resonance (Biacore T200) of chAB2 binding to recombinant 6His-Sp17; details: SPR
Excerpt: The lines correspond, from highest to lowest, to fitted cycles for 300 nanomolar, 100 nanomolar, 50 nanomolar, 25 nanomolar, 12.5 nanomolar, and 6.25 nanomolar concentrations of 6His-Sp17.
(§1) The nucleotide sequences encoding the VH and VL regions of Example 1 were cloned into a mouse IgG2a heavy chain gene and a mouse kappa light chain gene, respectively, and expressed in CHO—S cells to produce a mouse-human chimeric antibody, which was named chAB2. Successful generation of the antibody was confirmed by SDS-PAGE and western blotting using anti-mouse heavy and light chain antibodies and recombinant Sp17 protein (FIGS. 2 & 3).

[2] = tested on: normal tissue microarray of 33 normal tissues; assay: Immunohistochemistry on a normal tissue microarray (specificity); details: 2-3 human donors per tissue
Description: The specificity of the chAB2 antibody for Sp17 was determined with immunohistochemistry on a normal tissue microarray, which consisted of 33 normal tissues obtained from 2-3 human donors per tissue. The normal tissues included brain, eye, adrenal gland, hypophyseal, thyroid, parathyroid, tonsil, thymus, spleen, heart, lung, larynx, esophagus, stomach, small intestine, colon, liver, pancreas, salivary gland, kidney, bone, skeletal, skin, peripheral nerve, mesothelial, breast, ovary, endometrium, cervix, testis, and prostate.

[3] = target: T2, mouse surface Sp17 protein expressed on the mouse ovarian cancer cell line ID8; assay: Flow cytometry of ID8 cells labeled with chAB2 and anti-mouse FITC antibody; format: cell-based; details: relative to anti-mouse FITC antibody alone
Description: FIG. 4 consists of three panels. The left panel is a graph that depicts flow cytometry results for ID8 cells incubated with an anti-mouse fluorescein isothiocyanate (FITC) antibody, but without a primary antibody. The middle panel is a graph that depicts flow cytometry results for ID8 cells labeled with the anti-Sp17 antibody chAB2 and the anti-mouse FITC antibody.
as §1

Sp17 protein = target: T3, Sp17 protein; assay: Western blot detection of Sp17 protein; format: binding; details: SDS-PAGE of Sp17 protein
Excerpt: as §1
The VH and VL nucleotide sequences of Example 1 were cloned into a human IgG4 heavy chain gene and a human kappa light chain gene, respectively. A Ser228Pro mutation was introduced in the heavy chain to reduce non-specific Fc receptor gamma binding. The resultant antibody was named SP17-AB2. Successful cloning was confirmed by sequence analysis. The amino acid sequences of the heavy chain and light chain are shown in Table 4, and the Ser228Pro mutation is underlined in SEQ ID NO: 11.

[4] = SK-OV-3 cells at 1000 cells/well
[5] = SK-OV-3 cells at 2000 cells/well
[6] = SK-OV-3 cells at 3000 cells/well

| association rate constant (ka) for chAB2 to Sp17 ([1]; 6.25-300 nanomolar 6His-Sp17) | Kd ([1]; Biacore T200, read-out: dissociation constant (KD)) | binding/detection of Sp17 protein by western blot (Sp17 protein) | Molecule | IC50 (SK-OV-3 cells; [4]) | Max Cytotoxicity (SK-OV-3 cells; [4]) | IC50 (SK-OV-3 cells; [5]) | Max Cytotoxicity (SK-OV-3 cells; [5]) | IC50 (SK-OV-3 cells; [6]) | Max Cytotoxicity (SK-OV-3 cells; [6]) | Max Cytotoxicity (ID8 cells; ID8 cells at 250 cells/well) | Max Cytotoxicity (ID8 cells; ID8 cells at 500 cells/well) | binding to normal human tissues / cross-reactivity by immunohistochemistry [2] | reactivity to surface Sp17 on ID8 cells by flow cytometry (mean fluorescent intensity) [3] |
| --- | --- | --- | --- | --- | --- | --- | --- | --- | --- | --- | --- | --- | --- |
| – | – | – | CC[C@@]1(O)C(=O)OCc2c1cc1n(c2=O)Cc2c-1nc1cc(F)c(C)c3c1c2[C@@H](NC(=O)COCNC(=O)CNC(=O)[C@H](Cc1ccccc1)NC(=O)CNC(=O)CNC(=O)CCCCCN1C(=O)C=CC1=O)CC3 [deruxtecan] ({Hexanoyl(6-maleimido)}-GGFG[NHCH2OCH2CO]-Exatecan) | 0.75 nM | 98% | 1.1 nM | 97% | 1.2 nM | 97% | 94% | 93% | – | – |
| 62,600 per mole per second | ~2 nM | Sp17 protein was detected | chAB2: mouse-human chimeric anti-Sp17 monoclonal antibody: human VH/VL (SEQ ID NO: 3, 4) in mouse IgG2a heavy chain and mouse kappa light chain (antibody, V domains shown, mouse IgG2a and kappa constant regions) VH: QVQLQQSGAEVKKPGSSVKVSCKASGGTFSSYAISWVRQAPGQGLEWMGRIIPILGIANYAQKFQGRVTITADKSTSTAYMELSSLRSEDTAVYYCARPSEEVVAAYGAFDIWGQGTTVTVSS VL: EIVLTQSPLSLPVRPGEPASISCRASQSLLRSDGFNYLDWYLQKPGQSPQLLVYLGSNRASGVPDRFSGSGSGTDFTLKISRVEAEDVGVYYCMQAVQTPYIFGQGTKLEIK | – | – | – | – | – | – | – | – | bound to testis and did not bind to normal tissues; also recorded: lack detectable cross-reactivity | reactive to mouse surface Sp17 protein; also recorded: increased mean fluorescent intensity |
